# Like-named read-outs stand apart in the source and are kept apart here.
# Legend:
# [1] = test system: Neotropical Brown Stink Bug (Euschistus heros, EUSCHE); test: whole plant or invertebrate; assay type: in vivo
# Procedure: X=No. of live nymphs on solvent check and Y=No. of live nymphs on treated bean segments. In Table B4 the “Expected % Control” was calculated using the method described in Colby S. R., Weeds, 1967, 15, 20-22. Bioassay 5: Neotropical Brown Stink Bug (Euschistus heros, EUSCHE) (“BSB”).
# Stock solutions were prepared with Formula One as well as for each of the active ingredients individually. Test solutions were prepared from the stock solutions. Test solutions were prepared containing Formula One, the individual active ingredients, and mixtures of Formula One with each of the active ingredients. The test solution for Formula One was prepared by adding 500 μL of the stock solution to a 25 mL glass vial, then adding 500 μL of acetone, followed by the addition of 9 mL water with 0.025% Tween®) 20 to create a 0.04% (w/v) solution. The individual active ingredients were prepared by adding 500 μL of stock solution to a 25 mL glass vial, then adding 500 μL of acetone, followed by the addition of 9 mL water with 0.025% Tween®) 20 to create a 0.005% (w/v) solution. The test solutions containing mixtures of Formula One and the individual active ingredients were prepared by adding 500 μL of the active ingredient stock solution to a 25 mL glass vial, followed by 500 μL of the Formula One stock solution, then by the addition of 9 mL water with 0.025% Tween®) 20 to create a test solution containing 0.04% (w/v) Formula One and 0.005% (w/v) of the active ingredient. Each test solution was serially diluted to create desired doses of test solutions (0.01% (w/v), 0.0025% (w/v), 0.000625% (w/v), 0.000156% (w/v), and 0.000039% (w/v)). In test solutions containing mixtures of Formula One and the active ingredients, the active ingredients were diluted as described above, but the Concentration of Formula One was held constant (0.04% (w/v)).
# The test solutions that were tested against BSB were similar to those described above for WTPB. Fresh green beans were cut into segments approximately 1.5 inches long. Four bean segments were added to each test solution and soaked for approximately 15 minutes. After soaking, a single bean fragment was removed and placed into a single well of a 32-well rearing tray (Frontier Agricultural Sciences™), on top of a round filter paper disc. A reference treatment (solvent check) was treated with the diluent only. Each treatment was replicated four times and the test treatments were held at approximately 26° C. and ambient relative humidity (RH) prior to grading. Bean segments were allowed to air dry for ˜30 minutes. Three BSB nymphs were added to and contained in each well with a clear perforated adhesive lid. The total number of living BSB nymphs was recorded 3 days after application. Scoring was based off the total number of living nymphs out of all four replicates. Percent control was measured using Abbott's correction formula (W. S. Abbott, J. Econ. Entomol. 18 (1925), pp. 265-267) as follows:
# where X=No. of live nymphs on solvent check and Y=No. of live nymphs on treated bean segments. In Table B5 the “Expected % Control” was calculated using the method described in Colby S. R., Weeds, 1967, 15, 20-22. Bioassay 6: Beet Armyworm (Spodoptera exigua, LAPHEG) (BAW), and Diamondback Moth (Plutella xylostella, PLUTMA) (DBM).
# [2] = test system: Western Flower Thrips (Frankliniella occidentalis, FRANOC); test: Bioassay 3: Western Flower Thrips, cotton leaf disc dip, live WFT counted 3 days after treatment; assay type: in vivo; conditions: for pest or weed control at 7.8e-05 % strength: read-out: Average % Control AI
# Procedure, shortened: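 Cotton leaf discs were dipped in acetone/water solutions with 0.025% Tween 20, at 0.005% to 0.0000195% (w/v) for single actives; mixtures held Formula One constant at 0.04% (w/v). Discs were air dried, infested with 5 nymphs aged 9-10 days, and held at approximately 26° C. Live thrips were counted at 3 days, with Abbott-corrected control against solvent checks.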
# [3] = Euschistus heros, 72 h, AI alone 0.000156 % w/v, read-out: Average % Control AI
# [4] = Frankliniella occidentalis, foliar, 72 h, AI alone 0.0003125 % w/v
# [5] = Euschistus heros, 72 h, AI alone 0.000625 % w/v
compound,measurement,setting,value
Cc1c(COC(=O)[C@@H]2[C@H](/C=C(\Cl)C(F)(F)F)C2(C)C)cccc1-c1ccccc1 (racemic) [Bifenthrin],pest or weed control at 0.000156 % strength,[1]; [3],30%
CC1(C)[C@H](C(=O)O[C@H](C#N)c2cccc(Oc3ccccc3)c2)[C@@H]1/C=C(\Cl)C(F)(F)F (racemic) [Lambda Cyhalothrin],pest or weed control at 0.0003125 % strength,[2]; [4],7%
same,pest or weed control at 0.000625 % strength,[1]; [5],8%
COP(=O)(NC(C)=O)SC (stereo not drawn) [Acephate],pest or weed control at 7.8e-05 % strength,"[2]; Frankliniella occidentalis, foliar, 72 h",5%
same,pest or weed control at 0.0025 % strength,"[1]; Euschistus heros, 72 h, read-out: Average % Control AI",0%
C/C(=N\C#N)N(C)Cc1ccc(Cl)nc1 [Acetamiprid],pest or weed control at 0.0003125 % strength,[2]; [4],13%
CC[S+]([O-])c1c(C#N)nn(-c2c(Cl)cc(C(F)(F)F)cc2Cl)c1N (stereo not drawn) [Ethiprole],pest or weed control at 0.005 % strength,"[2]; Frankliniella occidentalis, foliar, 72 h, AI alone 0.005 % w/v",0%
same,pest or weed control at 3.91e-05 % strength,"[1]; Euschistus heros, 72 h, AI alone 0.0000391 % w/v",0%
CON=CNC(=O)c1ccc(C2=NOC(c3cc(Cl)cc(Cl)c3)(C(F)(F)F)C2)cc1C (stereo not drawn) [Fluxametamide],Average % Control AI,[2]; AI alone 0.0003125 % w/v,67%
same,Average % Control AI,[1]; AI alone 0.000625 % w/v,17%
"CCN(C(=O)CCS(C)(=O)=O)c1sc(-c2cccnc2)nc1Cl [Formula F1, N-(4-chloro-2-(pyridin-3-yl)thiazol-5-yl)-N-ethyl-3-(methylsulfonyl)propanamide]",Average % Control F1,[1]; F1 alone 0.04 % w/v,0%
O=[N+]([O-])NC1=NCCN1Cc1ccc(Cl)nc1 [Imidacloprid],pest or weed control at 0.0003125 % strength,[2]; [4],0%
same,pest or weed control at 0.000625 % strength,[1]; [5],17%
CN1COCN(Cc2cnc(Cl)s2)/C1=N\[N+](=O)[O-] [Thiamethoxam],pest or weed control at 7.8e-05 % strength,"[2]; Frankliniella occidentalis, foliar, 72 h, AI alone 0.000078 % w/v",7%
same,pest or weed control at 0.000156 % strength,[1]; [3],17%
Abamectin,Average % Control AI,[1]; AI alone 0.000625 % w/v,17%
Emamectin Benzoate,Average % Control AI,[2]; AI alone 0.005 % w/v,38%
same,Average % Control AI,[1]; AI alone 0.000156 % w/v,24%

# — patent publication US20250338846A1, “COMPOSITIONS HAVING PESTICIDAL UTILITY AND PROCESSES RELATED THERETO” (CORTEVA AGRISCIENCE, LLC, priority 2022, published 2025)
